For 1 compound, IC50 results are on record in BindingDB's records for patent US11739093 (Revolution Medicines, 2023).

This assay deals with T1, Tyrosine-protein phosphatase non-receptor type 11 (Homo sapiens, UniProt Q06124).
T1 sequence (Q06124 whole entry): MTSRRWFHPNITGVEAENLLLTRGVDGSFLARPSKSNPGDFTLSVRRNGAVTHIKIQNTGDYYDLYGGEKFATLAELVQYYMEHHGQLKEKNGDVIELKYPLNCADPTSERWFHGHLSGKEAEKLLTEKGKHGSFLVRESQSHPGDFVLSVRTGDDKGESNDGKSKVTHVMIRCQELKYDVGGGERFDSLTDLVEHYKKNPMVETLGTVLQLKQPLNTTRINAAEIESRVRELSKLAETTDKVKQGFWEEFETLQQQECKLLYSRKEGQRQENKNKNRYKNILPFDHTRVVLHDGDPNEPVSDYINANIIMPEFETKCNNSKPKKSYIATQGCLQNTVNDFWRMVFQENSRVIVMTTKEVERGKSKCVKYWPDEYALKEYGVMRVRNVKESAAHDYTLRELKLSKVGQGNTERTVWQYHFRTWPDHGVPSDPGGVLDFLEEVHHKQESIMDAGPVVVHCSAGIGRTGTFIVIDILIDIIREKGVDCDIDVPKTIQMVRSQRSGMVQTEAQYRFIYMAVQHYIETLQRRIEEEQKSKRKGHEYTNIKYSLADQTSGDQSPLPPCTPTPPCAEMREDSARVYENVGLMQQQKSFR
Put plainly: SHP2 Allosteric Inhibition Assay. The method, then: The phosphatase reactions were performed at room temperature in 96-well black polystyrene plate, flat bottom, non-binding surface (Corning, Cat #3650) using a final reaction volume of 100 μL and the following assay buffer conditions: 50 mM HEPES, pH 7.2, 100 mM NaCl, 0.5 mM EDTA, 0.05% P-20, 1 mM DTT. The inhibition of SHP2 by compounds of the disclosure (concentrations varying from 0.00005-10 μM) was monitored using an assay in which 0.2 nM of SHP2 was incubated with 0.5 μM of Activating Peptide 1 (sequence: H2 N-LN(pY)IDLDLV(dPEG8)LST(pY)ASINFQK-amide) or Activating Peptide 2 (sequence: H2 N-LN(pY)AQLWHA(dPEG8)LTI(pY)ATIRRF-amide). After 30-60- minutes incubation at 25° C., the surrogate substrate DiFMUP (Invitrogen, Cat #D6567) was added to the reaction and activity was determined by a kinetic read using a microplate reader (Envision, Perkin-Elmer or Spectramax M5, Molecular Devices). The excitation and emission wavelengths were 340 nm and 450 nm, respectively. Initial rates were determined from a linear fit of the data, and the inhibitor dose response curves were analyzed using normalized IC50 regression curve fitting with control-based normalization.

The structures appear in SMILES notation.

`Cc1nc(N2CCC3(CC2)CO[C@@H](C)[C@H]3N)c2ccnn2c1Sc1ccnc(N)c1Cl` [US11739093, Compound 3] returned an IC50 of 0.034 µM.
